Laboratory results reported in paper PMC6072100, “Exploring the links between peptoid antibacterial activity and toxicity” (MedChemComm, 2017).
“And” between values parts separate entries of the source, which are not always exact repeats. Equal entries are not always repeated. Where two headings read alike, the source gives them in different places. Square brackets hold non-standard residues; d marks the D form. Peptide text beside a SMILES is read from it. Gly(Nα-4-Cl-benzyl) = O=C(O)CNCc1ccc(Cl)cc1; N(4-F-Bzl)Gly = O=C(O)CNCc1ccc(F)cc1; Gly(N-2-aminoethyl) = NCCNCC(=O)O; Nspe = C[C@H](NCC(=O)O)c1ccccc1; Nlys = NCCCCNCC(=O)O

Key:
Assay type in all cases: cell-based
[1] = test system: Staphylococcus epidermidis (laboratory strain from clinical isolate); conditions: for MIC S. epidermidis: 16 h
Method in brief: (§1)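 Single colonies were grown 16–18 h at 37 °C in Iso-sensitest broth, brought to A650nm 0.07 and diluted tenfold. This inoculum met doubling dilutions of each peptoid (2–100 µM final), then incubated 16 h at 37 °C shaking before absorbance measurement.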

[2] = test system: Pseudomonas aeruginosa PA01 (ATCC 15692)
Method in brief: as §1

[3] = test system: Staphylococcus aureus (3R7089 strain Oxford/ATCC9144)
Method in brief: as §1

[4] = test system: Escherichia coli K-12 wild-type strain (W3110/ATCC27325); conditions: for MIC E. coli: lowest concentration completely inhibiting growth, 37 °C, 16 h, range 2–100 μM
Method in brief: as §1

[5] = lowest concentration completely inhibiting growth, 37 °C, range 2–100 μM
[6] = lowest concentration completely inhibiting growth, 37 °C, 16 h, range 2–100 μM

| Structure (SMILES) | MIC S. epidermidis [1, 5] [µM] | MIC P. aeruginosa [2, 6] | MIC S. aureus [3, 6] [µM] | MIC E. coli [4] | sensitivity of S. epidermidis (in words) ([1]; compared with the other bacteria tested) | MIC P. aeruginosa ([2]; ATCC 15692, 16 h) [µM] | MIC S. aureus ([3]; ATCC9144, 16 h) [µM] | activity against E. coli (in words) [4] | MIC S. epidermidis ([1]; laboratory strain from clinical isolate) [µM] | activity against P. aeruginosa (in words) [2] |
| --- | --- | --- | --- | --- | --- | --- | --- | --- | --- | --- |
| C[C@@H](c1ccccc1)N(CC(N)=O)C(=O)CN(C(=O)CN(CCCCN)C(=O)CN(C(=O)CN(C(=O)CN(CCCCN)C(=O)CN(C(=O)CN(C(=O)CN(CCCCN)C(=O)CN(C(=O)CN(C(=O)CNCCCCN)[C@@H](C)c1ccccc1)[C@@H](C)c1ccccc1)[C@@H](C)c1ccccc1)[C@@H](C)c1ccccc1)[C@@H](C)c1ccccc1)[C@@H](C)c1ccccc1)[C@@H](C)c1ccccc1 [Peptoid 13, (NLysNspeNspe)4] (H-[Nlys][Nspe][Nspe][Nlys][Nspe][Nspe][Nlys][Nspe][Nspe][Nlys][Nspe][Nspe]-NH2) | 1 | 50 µM | 2 | 25 µM | – | – | – | – | – | – |
| C[C@@H](c1ccccc1)N(CC(N)=O)C(=O)CN(C(=O)CN(CCCCN)C(=O)CN(C(=O)CN(C(=O)CN(CCCCN)C(=O)CN(C(=O)CN(C(=O)CNCCCCN)[C@@H](C)c1ccccc1)[C@@H](C)c1ccccc1)[C@@H](C)c1ccccc1)[C@@H](C)c1ccccc1)[C@@H](C)c1ccccc1 [Peptoid 14, (NLysNspeNspe)3] (H-[Nlys][Nspe][Nspe][Nlys][Nspe][Nspe][Nlys][Nspe][Nspe]-NH2) | 2 | >100 µM | 2 | 13 µM | – | – | – | – | – | – |
| C[C@@H](c1ccccc1)N(CC(N)=O)C(=O)CN(C(=O)CN(CCCCN)C(=O)CN(C(=O)CN(C(=O)CNCCCCN)[C@@H](C)c1ccccc1)[C@@H](C)c1ccccc1)[C@@H](C)c1ccccc1 [Peptoid 15, (NLysNspeNspe)2] (H-[Nlys][Nspe][Nspe][Nlys][Nspe][Nspe]-NH2) | 25 | 100 µM | 100 | >100 µM | some increased sensitivity | >100 | >100 | – | – | – |
| C[C@@H](c1ccccc1)N(CC(N)=O)C(=O)CN(C(=O)CN(CCN)C(=O)CN(C(=O)CN(C(=O)CN(CCN)C(=O)CN(C(=O)CN(C(=O)CN(CCN)C(=O)CN(C(=O)CN(C(=O)CNCCN)[C@@H](C)c1ccccc1)[C@@H](C)c1ccccc1)[C@@H](C)c1ccccc1)[C@@H](C)c1ccccc1)[C@@H](C)c1ccccc1)[C@@H](C)c1ccccc1)[C@@H](C)c1ccccc1 [Peptoid 16, (NaeNspeNspe)4] (H-[Gly(N-2-aminoethyl)][Nspe][Nspe][Gly(N-2-aminoethyl)][Nspe][Nspe][Gly(N-2-aminoethyl)][Nspe][Nspe][Gly(N-2-aminoethyl)][Nspe][Nspe]-NH2) | 2 | 50 µM | 2 | 100 µM and > 100 µM | – | – | – | negligible activity | – | – |
| C[C@@H](c1ccccc1)N(CC(N)=O)C(=O)CN(C(=O)CN(CCN)C(=O)CN(C(=O)CN(C(=O)CN(CCN)C(=O)CN(C(=O)CN(C(=O)CNCCN)[C@@H](C)c1ccccc1)[C@@H](C)c1ccccc1)[C@@H](C)c1ccccc1)[C@@H](C)c1ccccc1)[C@@H](C)c1ccccc1 [Peptoid 17, (NaeNspeNspe)3] | 13 | 100 µM and > 100 µM | 2 | 25 µM | – | – | – | – | – | – |
| C[C@@H](c1ccccc1)N(CC(N)=O)C(=O)CN(C(=O)CN(CCN)C(=O)CN(C(=O)CN(C(=O)CNCCN)[C@@H](C)c1ccccc1)[C@@H](C)c1ccccc1)[C@@H](C)c1ccccc1 [Peptoid 18, (NaeNspeNspe)2] | 100 | 100 µM | 100 | >100 µM | – | >100 | >100 | – | >100 | – |
| COc1ccc(CN(CC(N)=O)C(=O)CN(Cc2ccc(OC)cc2)C(=O)CN(CCCCN)C(=O)CN(Cc2ccc(OC)cc2)C(=O)CN(Cc2ccc(OC)cc2)C(=O)CN(CCCCN)C(=O)CN(Cc2ccc(OC)cc2)C(=O)CN(Cc2ccc(OC)cc2)C(=O)CN(CCCCN)C(=O)CN(Cc2ccc(OC)cc2)C(=O)CN(Cc2ccc(OC)cc2)C(=O)CNCCCCN)cc1 [Peptoid 19, (NLysNpmbNpmb)4] | 2 | 100 µM | 3 | >100 µM | – | >100 | – | negligible effect | – | negligible effect |
| NCCCCNCC(=O)N(CC(=O)N(CC(=O)N(CCCCN)CC(=O)N(CC(=O)N(CC(=O)N(CCCCN)CC(=O)N(CC(=O)N(CC(=O)N(CCCCN)CC(=O)N(CC(=O)N(CC(N)=O)Cc1ccc(Cl)cc1)Cc1ccc(Cl)cc1)Cc1ccc(Cl)cc1)Cc1ccc(Cl)cc1)Cc1ccc(Cl)cc1)Cc1ccc(Cl)cc1)Cc1ccc(Cl)cc1)Cc1ccc(Cl)cc1 [Peptoid 20, (NLysNpcbNpcb)4] (H-[Nlys][Gly(Nα-4-Cl-benzyl)][Gly(Nα-4-Cl-benzyl)][Nlys][Gly(Nα-4-Cl-benzyl)][Gly(Nα-4-Cl-benzyl)][Nlys][Gly(Nα-4-Cl-benzyl)][Gly(Nα-4-Cl-benzyl)][Nlys][Gly(Nα-4-Cl-benzyl)][Gly(Nα-4-Cl-benzyl)]-NH2) | 6 | 100 µM | 25 | 100 µM and > 100 µM | – | >100 | – | – | – | – |
| NCCCCNCC(=O)N(CC(=O)N(CC(=O)N(CCCCN)CC(=O)N(CC(=O)N(CC(=O)N(CCCCN)CC(=O)N(CC(=O)N(CC(N)=O)Cc1ccc(Cl)cc1)Cc1ccc(Cl)cc1)Cc1ccc(Cl)cc1)Cc1ccc(Cl)cc1)Cc1ccc(Cl)cc1)Cc1ccc(Cl)cc1 [Peptoid 21, (NLysNpcbNpcb)3] (H-[Nlys][Gly(Nα-4-Cl-benzyl)][Gly(Nα-4-Cl-benzyl)][Nlys][Gly(Nα-4-Cl-benzyl)][Gly(Nα-4-Cl-benzyl)][Nlys][Gly(Nα-4-Cl-benzyl)][Gly(Nα-4-Cl-benzyl)]-NH2) | 2 | 25 µM | 3 | 50 µM | – | – | – | – | – | – |
| NCCCCNCC(=O)N(CC(=O)N(CC(=O)N(CCCCN)CC(=O)N(CC(=O)N(CC(=O)N(CCCCN)CC(=O)N(CC(=O)N(CC(=O)N(CCCCN)CC(=O)N(CC(=O)N(CC(N)=O)Cc1ccc(F)cc1)Cc1ccc(F)cc1)Cc1ccc(F)cc1)Cc1ccc(F)cc1)Cc1ccc(F)cc1)Cc1ccc(F)cc1)Cc1ccc(F)cc1)Cc1ccc(F)cc1 [Peptoid 22, (NLysNpfbNpfb)4] (H-[Nlys][N(4-F-Bzl)Gly][N(4-F-Bzl)Gly][Nlys][N(4-F-Bzl)Gly][N(4-F-Bzl)Gly][Nlys][N(4-F-Bzl)Gly][N(4-F-Bzl)Gly][Nlys][N(4-F-Bzl)Gly][N(4-F-Bzl)Gly]-NH2) | 1 | 25 µM | 2 | 13 µM | – | – | 2 | – | – | – |
| NCCCCNCC(=O)N(CC(=O)N(CC(=O)N(CCCCN)CC(=O)N(CC(=O)N(CC(=O)N(CCCCN)CC(=O)N(CC(=O)N(CC(N)=O)Cc1ccc(F)cc1)Cc1ccc(F)cc1)Cc1ccc(F)cc1)Cc1ccc(F)cc1)Cc1ccc(F)cc1)Cc1ccc(F)cc1 [Peptoid 23, (NLysNpfbNpfb)3] (H-[Nlys][N(4-F-Bzl)Gly][N(4-F-Bzl)Gly][Nlys][N(4-F-Bzl)Gly][N(4-F-Bzl)Gly][Nlys][N(4-F-Bzl)Gly][N(4-F-Bzl)Gly]-NH2) | 3 | 25 µM | 3 | 13 µM | – | – | – | – | – | – |
| NCCCCNCC(=O)N(CC(=O)N(CC(=O)N(CCCCN)CC(=O)N(CC(=O)N(CC(=O)N(CCCCN)CC(=O)N(CC(=O)N(CC(=O)N(CCCCN)CC(=O)N(CC(=O)N(CC(N)=O)Cc1cccc(F)c1)Cc1cccc(F)c1)Cc1cccc(F)c1)Cc1cccc(F)c1)Cc1cccc(F)c1)Cc1cccc(F)c1)Cc1cccc(F)c1)Cc1cccc(F)c1 [Peptoid 24, (NLysNmfbNmfb)4] | 3 | 25 µM | 6 | 25 µM | – | – | – | – | – | – |
| NCCCCNCC(=O)N(CC(=O)N(CC(=O)N(CCCCN)CC(=O)N(CC(=O)N(CC(=O)N(CCCCN)CC(=O)N(CC(=O)N(CC(N)=O)Cc1cccc(F)c1)Cc1cccc(F)c1)Cc1cccc(F)c1)Cc1cccc(F)c1)Cc1cccc(F)c1)Cc1cccc(F)c1 [Peptoid 25, (NLysNmfbNmfb)3] | 2 | 25 µM | 6 | 13 µM | – | – | – | – | – | – |
| C[C@@H](c1ccccc1)N(CC(N)=O)C(=O)CN(Cc1ccc(F)cc1)C(=O)CN(CCCCN)C(=O)CN(C(=O)CN(Cc1ccc(F)cc1)C(=O)CN(CCCCN)C(=O)CN(C(=O)CN(Cc1ccc(F)cc1)C(=O)CN(CCCCN)C(=O)CN(C(=O)CN(Cc1ccc(F)cc1)C(=O)CNCCCCN)[C@@H](C)c1ccccc1)[C@@H](C)c1ccccc1)[C@@H](C)c1ccccc1 [Peptoid 26, (NLysNpfbNspe)4] | 2 | 13 µM | 2 | 13 µM | – | – | – | – | – | – |
